Measurements published in ChEMBL document CHEMBL1201862, “PubChem BioAssay data set” (2004).
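In this assay, cells in 96-well plates receive the compound at five concentrations for 48 hours. Endpoints are linearly interpolated between the surrounding concentrations. Abbreviation: GI50, concentration required for 50% inhibition of growth.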 The source made the active and inactive calls. No stated cut-off is given here; in the data, active = GI50 up to about 1.1 µM and inactive = higher.

What was measured:
Experiment in all cases: DTP human tumour cell line panel, 48 h
A498 = tested on: A498
ACHN = tested on: ACHN
DU-145 = tested on: DU-145
EKVX = tested on: EKVX
HL-60 = tested on: HL-60
Hs-578T = tested on: Hs-578T
MCF7 = tested on: MCF7
MDA-MB-231 = tested on: MDA-MB-231
MDA-MB-435 = tested on: MDA-MB-435
NCI-H460 = tested on: NCI-H460
NCI-H522 = tested on: NCI-H522
OVCAR-4 = tested on: OVCAR-4
OVCAR-5 = tested on: OVCAR-5
OVCAR-8 = tested on: OVCAR-8
PC-3 = tested on: PC-3
RPMI-8226 = tested on: RPMI-8226
SF-539 = tested on: SF-539
SNB-19 = tested on: SNB-19
TK-10 = tested on: TK-10

Row | Structure (SMILES) | GI50 (A498) | GI50 (ACHN) | GI50 (DU-145) | GI50 (EKVX) | GI50 (HL-60) | GI50 (Hs-578T) | GI50 (MCF7) | GI50 (MDA-MB-231) | GI50 (MDA-MB-435) | GI50 (NCI-H460) | GI50 (NCI-H522) | GI50 (OVCAR-4) | GI50 (OVCAR-5) | GI50 (OVCAR-8) | GI50 (PC-3) | GI50 (RPMI-8226) | GI50 (SF-539) | GI50 (SNB-19) | GI50 (TK-10)
1 | Oc1c(C(O)(c2ccccc2)c2ccc3ccccc3c2O)ccc2ccccc12 | 16.1 µM (inactive) | 10.5 µM (inactive) | 15.6 µM (inactive) | 11.4 µM (inactive) | 3.52 µM (inactive) | 7.03 µM (inactive) | 2.93 µM (inactive) | 13.6 µM (inactive) | 14.1 µM (inactive) | 8.91 µM (inactive) | 4.01 µM (inactive) | 8.93 µM (inactive) | 17.8 µM (inactive) | 11.3 µM (inactive) | 8.26 µM (inactive) | 2.11 µM (inactive) | 19 µM (inactive) | 14.2 µM (inactive) | 13 µM (inactive)
2 | Cc1nc2nc3c(ncn3COCCO)c(O)n2c1C(c1ccccc1)(c1ccccc1)c1ccccc1 | 18.3 µM (inactive) | 18 µM (inactive) | 12.5 µM (inactive) | 19.4 µM (inactive) | 14.1 µM (inactive) | 21.2 µM (inactive) | 10.2 µM (inactive) | 14.5 µM (inactive) | 10.9 µM (inactive) | 15.2 µM (inactive) | 12.6 µM (inactive) | 13.6 µM (inactive) | 18.7 µM (inactive) | 14 µM (inactive) | 12.9 µM (inactive) | 12 µM (inactive) | 6.25 µM (inactive) | 14.8 µM (inactive) | 16.6 µM (inactive)
3 | O=C(O)C(=Cc1ccc(-c2ccccc2)cc1)C(=O)O | 19.3 µM (inactive) | 18.6 µM (inactive) | 3.66 µM (inactive) | > 100 µM (inactive) | 7.53 µM (inactive) | 24.4 µM (inactive) | 11.5 µM (inactive) | 14.9 µM (inactive) | 9.16 µM (inactive) | 14.9 µM (inactive) | 6.82 µM (inactive) | 15.1 µM (inactive) | > 39.5 µM (inactive) | 16.6 µM (inactive) | 9.08 µM (inactive) | 4.26 µM (inactive) | 4.78 µM (inactive) | 13.6 µM (inactive) | 13.8 µM (inactive)
4 | CCOc1ccc(Nc2nc(N)nc(N)c2N)cc1 | > 100 µM (inactive) | 38.7 µM (inactive) | > 100 µM (inactive) | > 100 µM (inactive) | 39.1 µM (inactive) | 18.2 µM (inactive) | 18.8 µM (inactive) | 31.8 µM (inactive) | 25.1 µM (inactive) | 29.1 µM (inactive) | 26 µM (inactive) | 18.4 µM (inactive) | 29.6 µM (inactive) | 45.2 µM (inactive) | 45.3 µM (inactive) | 12.1 µM (inactive) | 21.7 µM (inactive) | 25.2 µM (inactive) | > 100 µM (inactive)
5 | O=C(O)CCc1nc2c(n1-c1ccccc1)C(=O)c1ccccc1C2=O | > 100 µM (inactive) | > 100 µM (inactive) | > 100 µM (inactive) | > 100 µM (inactive) | > 100 µM (inactive) | > 100 µM (inactive) | 97.7 µM (inactive) | > 100 µM (inactive) | 87.5 µM (inactive) | > 100 µM (inactive) | 38.5 µM (inactive) | > 100 µM (inactive) | > 100 µM (inactive) | > 100 µM (inactive) | > 100 µM (inactive) | > 100 µM (inactive) | > 100 µM (inactive) | > 100 µM (inactive) | > 100 µM (inactive)
6 | CC(C)(C)c1ccc(C(O)(c2ccc(C(C)(C)C)cc2)c2ccc(C(C)(C)C)cc2)cc1 | > 100 µM (inactive) | > 100 µM (inactive) | > 100 µM (inactive) | > 100 µM (inactive) | > 100 µM (inactive) | 70.5 µM (inactive) | > 100 µM (inactive) | > 100 µM (inactive) | > 100 µM (inactive) | > 100 µM (inactive) | > 100 µM (inactive) | > 100 µM (inactive) | > 100 µM (inactive) | > 100 µM (inactive) | > 100 µM (inactive) | 52.2 µM (inactive) | > 100 µM (inactive) | > 100 µM (inactive) | > 100 µM (inactive)
7 | Cc1cccc2c(NCCN(C)C)c3cccc(C(=O)NCCN(C)C)c3nc12 | 0.918 µM (active) | 0.0489 µM (active) | 0.471 µM (active) | 0.383 µM (active) | 0.24 µM (active) | 0.495 µM (active) | 0.0656 µM (active) | 0.0904 µM (active) | 0.176 µM (active) | < 0.0361 µM (active) | < 0.0486 µM (active) | 0.207 µM (active) | 1.27 µM (inactive) | 0.107 µM (active) | 0.356 µM (active) | 0.0838 µM (active) | 0.0649 µM (active) | 0.413 µM (active) | 0.445 µM (active)
8 | COC(=O)C1C(O)CCC2CN3CCc4c([nH]c5cccc(OC)c45)C3CC21 (stereo not given) | > 100 µM (inactive) | > 100 µM (inactive) | > 100 µM (inactive) | > 100 µM (inactive) | > 100 µM (inactive) | > 100 µM (inactive) | > 100 µM (inactive) | > 100 µM (inactive) | > 100 µM (inactive) | > 100 µM (inactive) | > 100 µM (inactive) | > 100 µM (inactive) | > 100 µM (inactive) | > 100 µM (inactive) | > 100 µM (inactive) | > 100 µM (inactive) | > 100 µM (inactive) | > 100 µM (inactive) | > 100 µM (inactive)
9 | CN(C)c1ccc(/C=C2\C[C@H]3[C@@H]4CCc5cc(OCCN6CCCC6)ccc5[C@H]4CC[C@]3(C)[C@H]2O)cc1 | 17.8 µM (inactive) | 18.1 µM (inactive) | 13.1 µM (inactive) | 15 µM (inactive) | 18.9 µM (inactive) | 21.8 µM (inactive) | 7.35 µM (inactive) | 7.14 µM (inactive) | 8.43 µM (inactive) | 8.07 µM (inactive) | 4.26 µM (inactive) | 16.3 µM (inactive) | 14.7 µM (inactive) | 6.32 µM (inactive) | 13.8 µM (inactive) | 8.28 µM (inactive) | 8.32 µM (inactive) | 18.7 µM (inactive) | 5.5 µM (inactive)
10 | CC(NC1=NCCO1)c1ccsc1 (stereo not given) | > 100 µM (inactive) | 44.9 µM (inactive) | 43.1 µM (inactive) | 54.7 µM (inactive) | 21.5 µM (inactive) | 11.5 µM (inactive) | 34.8 µM (inactive) | 18.2 µM (inactive) | 20.9 µM (inactive) | 10.9 µM (inactive) | 17.7 µM (inactive) | 24.9 µM (inactive) | > 100 µM (inactive) | 28.6 µM (inactive) | 21.1 µM (inactive) | 7.52 µM (inactive) | 16.2 µM (inactive) | 37.3 µM (inactive) | 65.5 µM (inactive)
11 | O=C1CN2C(c3ccccc3)=NN(c3ccc([N+](=O)[O-])cc3)C2(c2ccccc2)c2cc(Cl)ccc2N1CC1CC1 (stereo not given) | > 100 µM (inactive) | > 100 µM (inactive) | > 100 µM (inactive) | > 100 µM (inactive) | < 0.01 µM (active) | > 100 µM (inactive) | > 100 µM (inactive) | > 100 µM (inactive) | > 100 µM (inactive) | > 100 µM (inactive) | > 100 µM (inactive) | > 100 µM (inactive) | > 100 µM (inactive) | > 100 µM (inactive) | 7.6 µM (inactive) | 29 µM (inactive) | > 100 µM (inactive) | > 100 µM (inactive) | > 100 µM (inactive)
12 | Nc1ccc2c(c1)N(C(=O)CCCC(=O)N1CC(CCl)c3ccc(N)cc31)CC2CCl (stereo not given) | 1.07 µM (active) | 0.112 µM (active) | 0.121 µM (active) | 1.51 µM (inactive) | 0.0199 µM (active) | 0.918 µM (active) | 0.333 µM (active) | 1.43 µM (inactive) | 0.953 µM (active) | 0.716 µM (active) | 0.0713 µM (active) | 0.867 µM (active) | 0.875 µM (active) | 0.466 µM (active) | 1.08 µM (active) | 0.26 µM (active) | 0.461 µM (active) | 1.21 µM (inactive) | 1.53 µM (inactive)
13 | COc1cc(C2c3cc4c(cc3OC(O)C2C)OCO4)cc(OC)c1OC (stereo not given) | 0.483 µM (active) | 0.792 µM (active) | 0.414 µM (active) | 1.53 µM (inactive) | 0.172 µM (active) | 0.31 µM (active) | 0.29 µM (active) | 0.532 µM (active) | 0.0377 µM (active) | 0.355 µM (active) | 0.207 µM (active) | 2.8 µM (inactive) | 4.78 µM (inactive) | 0.245 µM (active) | 0.228 µM (active) | 0.264 µM (active) | 0.294 µM (active) | 0.434 µM (active) | 34.9 µM (inactive)
14 | COc1cccc(Nc2nc(N)nc(N)c2N)c1 | > 100 µM (inactive) | 42.6 µM (inactive) | > 100 µM (inactive) | > 100 µM (inactive) | 24.2 µM (inactive) | > 100 µM (inactive) | 30.4 µM (inactive) | 22.1 µM (inactive) | 39.7 µM (inactive) | 20 µM (inactive) | 30 µM (inactive) | > 100 µM (inactive) | > 100 µM (inactive) | 65.2 µM (inactive) | 99.8 µM (inactive) | 24.9 µM (inactive) | 40.8 µM (inactive) | > 100 µM (inactive) | > 100 µM (inactive)
15 | CC(C)=CCC[C@@H](C)C1=C(O)C(=O)C(C)=C(N[C@H](C)c2ccccc2)C1=O | 3.91 µM (inactive) | 3.72 µM (inactive) | 6.53 µM (inactive) | 5.08 µM (inactive) | 2.21 µM (inactive) | 6.12 µM (inactive) | 3.64 µM (inactive) | 7.35 µM (inactive) | 7.1 µM (inactive) | 2.75 µM (inactive) | 3.2 µM (inactive) | 5.75 µM (inactive) | 16.3 µM (inactive) | 2.58 µM (inactive) | 10.9 µM (inactive) | 6.31 µM (inactive) | 3.11 µM (inactive) | 6.07 µM (inactive) | 8.17 µM (inactive)
